How the values were obtained:
Type in all cases: in vivo
[1] = test system: Echinochloa crus-galli (ECHCG); assay: Pre-emergence herbicidal action against ECHCG
Outline: (§1)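 Application rates ran to 320 g/ha or lower, with several dosages tested on the same weeds. The compound, as wettable powder or emulsion concentrate, is sprayed pre-emergence onto soil over sown seeds; greenhouse growth follows, and effect is rated visually after roughly 3 weeks.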

Viola tricolor (VIOTR) [2] = assay: Pre-emergence herbicidal action against VIOTR
Outline: as §1

[3] = test system: Polygonum convolvulus (POLCO); assay: Pre-emergence herbicidal action against POLCO
Outline: as §1

[4] = test system: Pharbitis purpurea (PHBPU); assay: Post-emergence herbicidal action against PHBPU
Outline: (§2)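 Values are percent visual activity (0% like control, 100% plants dead) after about 3 weeks in the greenhouse. Treatment: post-emergence spray at one-leaf stage, 600 l/ha spray volume, 0.5% additive, doses 320 g/ha or lower.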

Avena fatua (AVEFA) [5] = assay: Pre-emergence herbicidal action against AVEFA; details: 320 g/ha, visual scoring after about 3 weeks vs untreated controls
Outline: as §1

[6] = test system: Matricaria inodora (MATIN); assay: Post-emergence herbicidal action against MATIN; details: dosage 320 g/ha
Outline: as §2

Avena fatua (AVEFA) [7] = assay: Post-emergence herbicidal action against AVEFA; details: visual rating about 3 weeks after treatment
Outline: as §2

Setaria viridis (SETVI) [8] = assay: Post-emergence herbicidal action against SETVI; details: dosage 320 g/ha
Outline: as §2

[9] = test system: Verconica persica (VERPE); assay: Post-emergence herbicidal action against VERPE
Outline: as §2

Lolium rigidum (LOLRI) [10] = assay: Pre-emergence herbicidal action against LOLRI; details: dosage 320 g/ha
Outline: as §1

[11] = test system: Amaranthus retroflexus (AMARE); assay: Post-emergence herbicidal action against AMARE
Outline: as §2

Viola tricolor (VIOTR) [12] = assay: Post-emergence herbicidal action against VIOTR
Outline: as §2

[13] = test system: Alopecurus myosuroides (ALOMY); assay: Pre-emergence herbicidal action against ALOMY; details: scored visually after about 3 weeks, 100% = plants have died
Outline: as §1

[14] = test system: Verconica persica (VERPE); assay: Pre-emergence herbicidal action against VERPE; details: dosage 320 g/ha
Outline: as §1

[15] = test system: Abutilon theophrasti (ABUTH); assay: Post-emergence herbicidal action against ABUTH; details: visual rating about 3 weeks after treatment vs untreated controls (100% = plants have died, 0% = like control plants)
Outline: as §2

Lolium rigidum (LOLRI) [16] = assay: Post-emergence herbicidal action against LOLRI
Outline: as §2

[17] = test system: Alopecurus myosuroides (ALOMY); assay: Post-emergence herbicidal action against ALOMY; details: visual rating about 3 weeks after treatment vs untreated controls (100% = plants have died, 0% = like control plants)
Outline: as §2

Setaria viridis (SETVI) [18] = assay: Pre-emergence herbicidal action against SETVI; details: dosage 320 g/ha
Outline: as §1

[19] = test system: Matricaria inodora (MATIN); assay: Pre-emergence herbicidal action against MATIN
Outline: as §1

[20] = test system: Echinochloa crus-galli (ECHCG); assay: Post-emergence herbicidal action against ECHCG
Outline: as §2

[21] = test system: Digitaria sanguinalis (DIGSA); assay: Pre-emergence herbicidal action against DIGSA
Text: Seeds of monocotyledonous and dicotyledonous weed plants and crop plants are placed in plastic or organic planting pots and covered with soil. The compounds of the invention, formulated in the form of wettable powders (WP) or as emulsion concentrates (EC), are then applied to the surface of the covering soil as aqueous suspension or emulsion with addition of 0.5% additive at a water application rate equivalent to 600 l/ha. After the treatment, the pots are placed in a greenhouse and kept under good growth conditions for the trial plants. After about 3 weeks, the effect of the preparations is scored visually in comparison with untreated controls as percentages. For example, 100% activity=the plants have died, 0% activity=like control plants.
Tables A1 to A13 below show the effects of selected compounds of the general formula (I) on various harmful plants and at an application rate corresponding to 320 g/ha or lower, which were obtained by the experimental procedure mentioned above. The appendices “a”, “b” and “c” give differentiation by dosage used with otherwise the same harmful plants tested.

[22] = test system: Amaranthus retroflexus (AMARE); assay: Pre-emergence herbicidal action against AMARE; details: visual scoring after about 3 weeks vs untreated controls
Outline: as §1

[23] = test system: Digitaria sanguinalis (DIGSA); assay: Post-emergence herbicidal action against DIGSA; details: 80 g/ha, visual rating about 3 weeks after treatment
Outline: as §2

Oryza sativa (ORYSA) = details: crop plant compatibility, 20 g/ha, effect vs untreated controls
Outline: (§3)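 Test crops were treated 2 to 3 weeks after sowing, once they reached one leaf, by spraying compound in water with 0.5% additive at 600 l/ha. Visual scoring compared them with untreated controls roughly 3 weeks on, and appendices a, b and c denote different doses.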

Zea mays (ZEAMX) = test system: Zea mays (ZEAMX)
Outline: as §3

[24] = 80 g/ha, visual scoring after about 3 weeks vs untreated controls

With `CCOC(=O)COc1nn(-c2ccccn2)c(-c2ccnc(F)c2)c1Br` [Example I-01, Ethyl {[4-bromo-5-(2-fluoropyridin-4-yl)-1-(pyridin-2-yl)-1H-pyrazol-3-yl]oxy}acetate] the “Pre-emergence action against ECHCG in %” value ([1]; dosage 320 g/ha) was 90%, the “Pre-emergence action against VIOTR in %” value (Viola tricolor (VIOTR) [2]; 320 g/ha, Viola tricolor) was 90% and the “Pre-emergence action against POLCO in %” value ([3]; dosage 320 g/ha) was 90%. The “Post-emergence action against PHBPU in %” value ([4]; dosage 80 g/ha) was 80%, the “Post-emergence action against PHBPU in %” value ([4]; dosage 320 g/ha) was 80% and the “Pre-emergence action against AVEFA in %” value (Avena fatua (AVEFA) [5]) was 80%. For the same compound, the “Post-emergence action against MATIN in %” value [6] was 90%, the “Post-emergence action against AVEFA in %” value (Avena fatua (AVEFA) [7]; 80 g/ha) was 90% and the “Post-emergence action against AVEFA in %” value (Avena fatua (AVEFA) [7]; 320 g/ha) was 100%. For the same compound, the “Post-emergence action against SETVI in %” value (Setaria viridis (SETVI) [8]) was 80%, the “Post-emergence action against VERPE in %” value ([9]; 320 g/ha, VERPE) was 90% and the “Post-emergence action against VERPE in %” value ([9]; dosage 80 g/ha) was 80%. The “Pre-emergence action against LOLRI in %” value (Lolium rigidum (LOLRI) [10]) was 100%, the “Post-emergence action against AMARE in %” value ([11]; 320 g/ha, visual rating about 3 weeks after treatment) was 80% and the “Post-emergence action against VIOTR in %” value (Viola tricolor (VIOTR) [12]; 80 g/ha) was 90%. The “Post-emergence action against VIOTR in %” value (Viola tricolor (VIOTR) [12]; 320 g/ha) was 100%, the “Pre-emergence action against ALOMY” value ([13]; 320 g/ha) was 100% and the “Pre-emergence action against VERPE in %” value [14] was 90%. For the same compound, the “Post-emergence action against ABUTH in %” value ([15]; 320 g/ha) was 80%, the “Post-emergence action against LOLRI in %” value (Lolium rigidum (LOLRI) [16]; dosage 80 g/ha) was 80% and the “Post-emergence action against LOLRI in %” value (Lolium rigidum (LOLRI) [16]; dosage 320 g/ha) was 90%. The “Post-emergence action against ALOMY in %” value ([17]; 80 g/ha) was 100%, the “Post-emergence action against ALOMY in %” value ([17]; 320 g/ha) was 100% and the “Pre-emergence action against SETVI in %” value (Setaria viridis (SETVI) [18]) was 100%. The “Pre-emergence action against MATIN in %” value ([19]; dosage 320 g/ha) was 100%, the “Post-emergence action against ECHCG in %” value ([20]; dosage 80 g/ha) was 80% and the “Post-emergence action against ECHCG in %” value ([20]; dosage 320 g/ha) was 90%. The “Pre-emergence action against DIGSA in %” value [21, 24] was 80%, the “Pre-emergence action against DIGSA in %” value ([21]; dosage 320 g/ha) was 100% and the “Pre-emergence action against AMARE in %” value ([22]; 80 g/ha) was 80%. For the same compound, the “Pre-emergence action against AMARE in %” value ([22]; 320 g/ha) was 90%.

`CC(C)=NOC(=O)COc1nn(-c2ncccc2F)c(-c2ccc(F)nc2)c1Br` [Example I-45] was tested, and the “Pre-emergence action against ECHCG in %” value ([1]; dosage 80 g/ha) was 90%, the “Pre-emergence action against VIOTR in %” value (Viola tricolor (VIOTR) [2]; dosage 80 g/ha) was 90% and the “Pre-emergence action against POLCO in %” value ([3]; dosage 80 g/ha) was 90%. The “Post-emergence action against AVEFA in %” value (Avena fatua (AVEFA) [7]; 80 g/ha) was 80%, the “Post-emergence action against DIGSA in %” value [23] was 90% and the “Post-emergence action against VERPE in %” value ([9]; dosage 80 g/ha) was 80%. The “Post-emergence action against AMARE in %” value ([11]; 80 g/ha, visual rating about 3 weeks after treatment vs untreated controls (100% = plants have died, 0% = like control plants)) was 80%, the “Pre-emergence action against ALOMY” value ([13]; 80 g/ha) was 90% and the “Post-emergence action against ABUTH in %” value ([15]; 80 g/ha) was 80%. The “Post-emergence action against ALOMY in %” value ([17]; 80 g/ha) was 90%, the “Pre-emergence action against MATIN in %” value ([19]; dosage 80 g/ha) was 80% and the “Post-emergence action against ORYSA in %” value (Oryza sativa (ORYSA)) was 10%. For the same compound, the “Post-emergence action against ZEAMX in % (crop plant compatibility)” value (Zea mays (ZEAMX); 20 g/ha, ZEAMX, effect in comparison to untreated controls) was 0%, the “Post-emergence action against ZEAMX in %” value (Zea mays (ZEAMX); crop plant compatibility, 80 g/ha, effect vs untreated controls) was 10% and the “Pre-emergence action against DIGSA in %” value [21, 24] was 100%. For the same compound, the “Pre-emergence action against AMARE in %” value ([22]; 80 g/ha) was 90%.
